Data taken from patent publication US9884048B2, “ERK inhibitors” (Merck Sharp & Dohme Corp., priority 2014, dated 2018).

Each compound was assayed against phosphorylated active hERK2 enzyme (Homo sapiens (Human), UniProt P28482). Settings: not given.
phosphorylated active hERK2 enzyme, sequence (P28482 whole entry): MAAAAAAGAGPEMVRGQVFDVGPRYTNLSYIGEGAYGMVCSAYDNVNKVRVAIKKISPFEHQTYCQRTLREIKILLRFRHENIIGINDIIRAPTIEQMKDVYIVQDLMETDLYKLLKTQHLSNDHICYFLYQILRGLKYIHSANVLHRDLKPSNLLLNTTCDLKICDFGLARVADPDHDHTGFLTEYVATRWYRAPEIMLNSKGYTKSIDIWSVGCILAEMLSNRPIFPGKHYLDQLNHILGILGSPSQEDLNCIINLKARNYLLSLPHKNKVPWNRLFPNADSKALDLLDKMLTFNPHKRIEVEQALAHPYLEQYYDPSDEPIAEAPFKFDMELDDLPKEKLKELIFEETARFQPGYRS

Work on Cc1cc(-n2ncc3cc(NC(=O)N[C@H]4CN(C)C[C@@H]4c4cccc(F)c4)ncc32)ccn1 [Example 19, 1-[(3R,4S)-4-(3-fluorophenyl)-1-methylpyrrolidin-3-yl]-3-[1-(2-methylpyridin-4-yl)-1H-pyrazolo[3,4-c]pyridin-5-yl)urea] yielded an IC50 of 3.07 nM.

Same assay, conditions: read-out: ERK2 IC50; IMAP-FP assay; 0.5 nM hERK2, 30 μM ATP; 10 point titration, 3 μM starting concentration

Compared with O=C(Nc1cc2cnn(-c3ccncc3)c2cn1)NC1CCCc2ccccc21 (stereo not shown) [Example 10, 1-(1-pyridin-4-yl-1H-pyrazolo[3,4-c]pyridin-5-yl)-3-(1,2,3,4-tetrahydronaphthalen-1-yl)urea], O=C(NCCc1ccccc1F)Nc1cc2cnn(-c3ccncc3)c2cn1 [Example 40, 1-[2-(2-fluorophenyl)ethyl]-3-(1-pyridin-4-yl-1H-pyrazolo[3,4-c]pyridin-5-yl)urea] is 3.8-fold lower in IC50: 34.7 nM for the first, 9.2 nM for the second. The second is the more potent here.

Going from O=C(NCc1ccc(Cl)cc1Cl)Nc1cc2cnn(-c3ccncc3)c2cn1 [Example 11, 1-(2,4-dichlorobenzyl)-3-(1-pyridin-4-yl-1H-pyrazolo[3,4-c]pyridin-5-yl)urea] to O=C(NCc1ccc(Cl)c(Cl)c1)Nc1cc2cnn(-c3ccncc3)c2cn1 [Example 12, 1-(3,4-dichlorobenzyl)-3-(1-pyridin-4-yl-1H-pyrazolo[3,4-c]pyridin-5-yl)urea], the IC50 falls from 26 nM to 0.9 nM (29-fold).

O=C(NCc1ccc(Cl)c(Cl)c1)Nc1cc2cnn(-c3ccc(F)cc3)c2cn1 [Example 13, 1-(3,4-dichlorobenzyl)-3-[1-(4-fluorophenyl)-1H-pyrazolo[3,4-c]pyridin-5-yl]urea] and O=C(NCc1ccccc1)Nc1cc2cnn(-c3ccc(F)cc3)c2cn1 [Example 37, 1-benzyl-3-[1-(4-fluorophenyl)-1H-pyrazolo[3,4-c]pyridin-5-yl)urea] are within 1.5-fold of each other in IC50: 19.7 nM for the first, 19.8 nM for the second.

First: Cc1cc(-n2ncc3cc(NC(=O)NCCN(C)C)ncc32)ccn1 [Example 15, 1-(2-(dimethylamino)ethyl)-3-(1-(2-methylpyridin-4-yl)-1H-pyrazolo[3,4-c]pyridin-5-yl)urea]
Second: Cc1cc(-n2ncc3cc(NC(=O)N[C@H]4CN(C)C[C@@H]4C)ncc32)ccn1 [Example 25, 1-[(3R,4S)-1,4-dimethylpyrrolidin-3-yl]-3-[1-(2-methylpyridin-4-yl)-1H-pyrazolo[3,4-c]pyridin-5-yl]urea]
The IC50 of the first is 22-fold higher: 1430 nM for the first, 66.4 nM for the second.

First: Cc1cc(-n2ncc3cc(NC(=O)N[C@H]4CN(C)C[C@@H]4c4ccccc4Cl)ncc32)ccn1 [Example 16, 1-[(3R,4S)-4-(2-chlorophenyl)-1-methylpyrrolidin-3-yl]-3-[1-(2-methylpyridin-4-yl)-1H-pyrazolo[3,4-c]pyridin-5-yl]urea]
Second: Cc1cc(-n2ncc3cc(NC(=O)N[C@H]4CN(C)C[C@@H]4c4ccc(F)c(Cl)c4)ncc32)ccn1 [Example 18, 1-[(3R,4S)-4-(3-chloro-4-fluorophenyl)-1-methylpyrrolidin-3-yl]-3-[1-(2-methylpyridin-4-yl)-1H-pyrazolo[3,4-c]pyridin-5-yl)urea]
The IC50 of the first is 2.2-fold lower: 0.952 nM for the first, 2.14 nM for the second.

First: Cc1cc(-n2ncc3cc(NC(=O)N[C@H]4COC[C@@H]4c4ccccc4)ncc32)ccn1 [Example 17, 1-[1-(2-methylpyridin-4-yl)-1H-pyrazolo[3,4-c]pyridin-5-yl]-3-[(3R,4R)-4-phenyltetrahydrofuran-3-yl]urea]
Second: Cc1cc(-n2ncc3cc(NC(=O)NC4CC(C)(C)Oc5ccccc54)ncc32)ccn1 (stereo not shown) [Example 46, 1-(2,2-dimethyl-3,4-dihydro-2H-chromen-4-yl)-3-[1-(2-methylpyridin-4-yl)-1H-pyrazolo[3,4-c]pyridin-5-yl]urea]
The IC50 of the first is 95-fold lower: 1.83 nM for the first, 174 nM for the second. The first is the more potent here.

Compared with Cc1cc(-n2ncc3cc(NC(=O)N[C@@H]4CCN(C)C4)ncc32)ccn1 [Example 20, 1-[1-(2-methylpyridin-4-yl)-1H-pyrazolo[3,4-c]pyridin-5-yl]-3-[(3R)-1-methylpyrrolidin-3-yl)urea], Cc1cc(-n2ncc3cc(NC(=O)N[C@H]4CCN(C)C4)ncc32)ccn1 [Example 21, 1-[1-(2-methylpyridin-4-yl)-1H-pyrazolo[3,4-c]pyridin-5-yl]-3-[(3S)-1-methylpyrrolidin-3-yl)urea] is 15-fold higher in IC50: 50.5 nM for the first, 767 nM for the second. The first is the more potent here.

First: Cc1cc(-n2ncc3cc(NC(=O)NC4CC(=O)N(C)C4)ncc32)ccn1 (stereo not shown) [Example 22, 1-(1-methyl-5-oxopyrrolidin-3-yl)-3-[1-(2-methylpyridin-4-yl)-1H-pyrazolo[3,4-c]pyridin-5-yl)urea]
Second: Cc1cc(-n2ncc3cc(NC(=O)NC4CCN(C)C4=O)ncc32)ccn1 (stereo not shown) [Example 23, 1-(1-methyl-2-oxopyrrolidin-3-yl)-3-[1-(2-methylpyridin-4-yl)-1H-pyrazolo[3,4-c]pyridin-5-yl)urea]
The IC50 of the first is 1.7-fold lower: 181 nM for the first, 314 nM for the second. The first is the more potent here.

Cc1cc(-n2ncc3cc(NC(=O)N[C@H]4CN(C)C[C@@H]4[C@@H]4CCCOC4)ncc32)ccn1 [Example 24, 1-[1-(2-methylpyridin-4-yl)-1H-pyrazolo[3,4-c]pyridin-5-yl]-3-{(3R,4S)-1-methyl-4-[(3S)-tetrahydro-2H-pyran-3-yl]pyrrolidin-3-yl}urea] and Cc1cc(-n2ncc3cc(NC(=O)N[C@H]4CN(C)C[C@@H]4C4CC4)ncc32)ccn1 [Example 30, 1-[(3R,4S)-4-cyclopropyl-1-methylpyrrolidin-3-yl]-3-[1-(2-methylpyridin-4-yl)-1H-pyrazolo[3,4-c]pyridin-5-yl]urea] are within 1.5-fold of each other in IC50: 140 nM for the first, 110 nM for the second.

First: Cc1cc(-n2ncc3cc(NC(=O)N[C@@H]4C[C@H](C)N(C)C4)ncc32)ccn1 [Example 26, 1-[(3R,5S)-1,5-dimethylpyrrolidin-3-yl]-3-[1-(2-methylpyridin-4-yl)-1H-pyrazolo[3,4-c]pyridin-5-yl]urea]
Second: CCN1CC[C@@H](NC(=O)Nc2cc3cnn(-c4ccnc(C)c4)c3cn2)C1 [Example 28, 1-[(3R)-1-ethylpyrrolidin-3-yl]-3-[1-(2-methylpyridin-4-yl)-1H-pyrazolo[3,4-c]pyridin-5-yl]urea]
The IC50 of the first is 2.6-fold higher: 275 nM for the first, 104 nM for the second. The second is the more potent here.

Going from Cc1cc(-n2ncc3cc(NC(=O)NCC4CN(C(C)C(F)(F)F)C4)ncc32)ccn1 (stereo not shown) [Example 27, 1-[1-(2-methylpyridin-4-yl)-1H-pyrazolo[3,4-c]pyridin-5-yl]-3-{[1-(2,2,2-trifluoro-1-methylethyl)azetidin-3-yl]methyl}urea] to CCCN1CC[C@@H](NC(=O)Nc2cc3cnn(-c4ccnc(C)c4)c3cn2)C1 [Example 29, 1-[1-(2-methylpyridin-4-yl)-1H-pyrazolo[3,4-c]pyridin-5-yl]-3-[(3R)-1-propylpyrrolidin-3-yl]urea], the IC50 rises from 122 nM to 453 nM (3.7-fold).

Compared with Cc1cc(-n2ncc3cc(NC(=O)N[C@H]4CN(C)C[C@@H]4C4CCCCC4)ncc32)ccn1 [Example 31, 1-[(3R,4S)-4-cyclohexyl-1-methylpyrrolidin-3-yl]-3-[1-(2-methylpyridin-4-yl)-1H-pyrazolo[3,4-c]pyridin-5-yl]urea], Cc1cc(-n2ncc3cc(NC(=O)N[C@@H]4CCN(c5ccc(F)cc5)C4)ncc32)ccn1 [Example 34, 1-[(3R)-1-(4-fluorophenyl)pyrrolidin-3-yl]-3-[1-(2-methylpyridin-4-yl)-1H-pyrazolo[3,4-c]pyridin-5-yl]urea] is 22-fold higher in IC50: 35.1 nM for the first, 762 nM for the second. The first is the more potent here.

Compared with Cc1cc(-n2ncc3cc(NC(=O)NCc4cccc(NS(C)(=O)=O)c4)ncc32)ccn1 [Example 32, N-{3-[({[1-(2-methylpyridin-4-yl)-1H-pyrazolo[3,4-c]pyridin-5-yl]carbamoyl}amino)methyl]phenyl}methanesulfonamide], Cc1cc(-n2ncc3cc(NC(=O)N[C@H](C)c4cccc(Cl)c4)ncc32)ccn1 [Example 43, 1-[(1R)-1-(3-chlorophenyl)ethyl]-3-[1-(2-methylpyridin-4-yl)-1H-pyrazolo[3,4-c]pyridin-5-yl]urea] is 2.2-fold higher in IC50: 0.442 nM for the first, 0.952 nM for the second.

Compared with COC[C@@H](NC(=O)Nc1cc2cnn(-c3ccnc(C)c3)c2cn1)c1ccc(F)cc1 [Example 33, 1-[(1S)-1-(4-fluorophenyl)-2-methoxyethyl]-3-[1-(2-methylpyridin-4-yl)-1H-pyrazolo[3,4-c]pyridin-5-yl]urea], Cc1cc(-n2ncc3cc(NC(=O)NC(C)c4ccc(OC(F)(F)F)cc4)ncc32)ccn1 (stereo not shown) [Example 47] is 15-fold lower in IC50: 590 nM for the first, 40.3 nM for the second. The second is the more potent here.

First: Cn1cc2cc(-n3ncc4cc(NC(=O)NC(c5ccccc5)c5cnco5)ncc43)ccc2n1 (stereo not shown) [Example 35, 1-[1-(2-methyl-2H-indazol-5-yl)-1H-pyrazolo[3,4-c]pyridin-5-yl]-3-[1,3 oxazol-5-yl(phenyl)methyl]urea]
Second: O=C(Nc1cc2cnn(-c3ccncc3)c2cn1)N[C@@H](c1ccccc1)C(F)(F)F [Example 38, 1-(1-pyridin-4-yl-1H-pyrazolo[3,4-c]pyridin-5-yl)-3-[(1S)-2,2,2-trifluoro-1-phenylethyl]urea]
The IC50 of the first is 12-fold lower: 1.56 nM for the first, 19.4 nM for the second.

First: O=C(NCc1cccnc1)Nc1cc2cnn(-c3ccncc3)c2cn1 [Example 39, 1-(pyridin-3-ylmethyl)-3-(1-pyridin-4-yl-1H-pyrazolo[3,4-c]pyridin-5-yl)urea]
Second: O=C(NCc1cccc(Cl)c1)Nc1cc2cnn(-c3ccncc3)c2cn1 [Example 41, 1-(3-chlorobenzyl)-3-(1-pyridin-4-yl-1H-pyrazolo[3,4-c]pyridin-5-yl)urea]
The IC50 of the first is 340-fold higher: 171 nM for the first, 0.499 nM for the second. The second is the more potent here.

Going from O=C(NCc1ccc(Cl)cc1)Nc1cc2cnn(-c3ccncc3)c2cn1 [Example 42, 1-(4-chlorobenzyl)-3-(1-pyridin-4-yl-1H-pyrazolo[3,4-c]pyridin-5-yl)urea] to Cc1cc(-n2ncc3cc(NC(=O)N[C@H](C)c4ccccc4Cl)ncc32)ccn1 [Example 44, 1-[(1R)-1-(2-chlorophenyl)ethyl]-3-[1-(2-methylpyridin-4-yl)-1H-pyrazolo[3,4-c]pyridin-5-yl]urea], the IC50 rises from 8.03 nM to 15.6 nM (1.9-fold).

First: Cc1cc(-n2ncc3cc(NC(=O)NC(C)c4ccc(-n5cncn5)cc4)ncc32)ccn1 (stereo not shown) [Example 45, 1-[1-(2-methylpyridin-4-yl)-1H-pyrazolo[3,4-c]pyridin-5-yl]-3-{1-[4-(1H-1,2,4-triazol-1-yl)phenyl]ethyl}urea]
Second: Cc1cc(-n2ncc3cc(NC(=O)NC(C)c4cccc(OC(F)(F)F)c4)ncc32)ccn1 (stereo not shown) [Example 48, 1-[1-(2-methylpyridin-4-yl)-1H-pyrazolo[3,4-c]pyridin-5-yl]-3-{1-[3-(trifluoromethoxy)phenyl]ethyl}urea]
The IC50 of the first is 16-fold higher: 166 nM for the first, 10.7 nM for the second.
